Publication doi:10.1101/2021.07.09.451751v1, “Identification of general acid catalyst for the ATPase activity of Lynch syndrome-related MutL homologs” (biorxiv, 2021)
Residue numbers refer to the chain shown, from its start.

Experiments:
aqMutL NTD [1] = target: T1, aqMutL NTD (Aquifex aeolicus, UniProt O67518); assay: equilibrium dialysis; type: binding
T1 construct: gene mutL; recombinant from E. coli
T1 sequence (O67518 1-319 limits assumed): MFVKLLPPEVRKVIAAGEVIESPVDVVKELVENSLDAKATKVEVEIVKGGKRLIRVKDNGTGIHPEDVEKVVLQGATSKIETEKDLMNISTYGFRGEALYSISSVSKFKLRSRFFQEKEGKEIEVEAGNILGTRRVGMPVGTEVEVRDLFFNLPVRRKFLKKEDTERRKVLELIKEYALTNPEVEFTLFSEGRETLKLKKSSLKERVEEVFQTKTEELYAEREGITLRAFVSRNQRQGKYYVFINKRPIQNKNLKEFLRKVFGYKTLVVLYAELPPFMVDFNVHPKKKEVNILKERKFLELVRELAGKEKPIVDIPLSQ

aqMutL NTD [2] = target: T2, aqMutL NTD (Aquifex aeolicus, UniProt O67518, K79A); assay: equilibrium dialysis; type: binding
T2 construct: gene mutL; recombinant from E. coli
T2 sequence (O67518 1-319 K79A limits assumed): T1 sequence (O67518 1-319 limits assumed) with K79A

Nc1ncnc2c1ncn2[C@@H]1O[C@H](COP(=O)(O)OP(=O)(O)NP(=O)(O)O)[C@@H](O)[C@H]1O [AMPPNP]
Kd (aqMutL NTD [1]): 300 µM | Kd (aqMutL NTD [2]): 340 µM
